For data set [1], the target named is T1, cathepsin B (Homo sapiens, UniProt P07858).
T1 construct: purchased Calbiochem, Merck Millipore
Description: Fluorometric cathepsin B inhibition assay (Cbz-Phe-Arg-AMC). In kind it is biochemical. The conditions noted are these: at 20 µM inhibitor; read-out: Cath. B % inh.

In data set [2] the target is T2, rhodesain (Trypanosoma brucei rhodesiense, UniProt Q95PM0).
T2 construct: made in house; host or cells: Pichia pastoris
The data set is described as follows: biochemical. In kind it is biochemical. The conditions noted are these: for fold improvement of rhodesain inhibition, acid compared to benzyl ester: 3 compared to 1, 4 compared to 2; for Rhod. t1/2: half-life of final complex, 0.693/k4; for Rhod. ΔEreac: reaction energy of second inhibition step from k3/k4; for Rhod. k3 / Rhod. k4: second inhibition step; for Rhod. k3: forward rate; for Rhod. k4: off-rate; for inhibition at 20 µM: at 20 µM inhibitor, read-out: Rhod. % inh.

Data set [3] deals with T3, NS3/NS2B protease of the Dengue virus (DENV PR) (Dengue virus type 2, UniProt P29990).
T3 construct: the NS3/NS2B protease of the Dengue virus (DENV PR)
The data set is described as follows: Fluorometric DENV NS2B/NS3 protease assay (Boc-Gly-Arg-Arg-AMC). The conditions noted are these: at 20 µM inhibitor; read-out: DENV PR % inh. In kind it is biochemical.

For data set [4], the target named is T2, rhodesain. Description: Dilution assay (reversibility), rhodesain. In kind it is biochemical. The conditions noted are these: 5×IC50, 50-fold dilution; data not shown.
Data set [5] addresses T2, rhodesain. The data set is described as follows: Hydrolysis assay LC/MS (ester hydrolysis by rhodesain). In kind it is biochemical. The following applies: 24 h incubation with rhodesain, 25 °C. How it is done: As reported previously for benzyl esters of the tested dipeptide sequence, we raised the hypothesis also in the current case, that the observed ester cleavage of the rhodesain–inhibitor adduct (Figure 5) might occur by rhodesain-catalyzed enzymatic hydrolysis. To verify this hypothesis, we incubated compounds 1, 2 (benzyl esters), compound 6 (methyl ester) and compound 8 (tert-butyl ester) for 24 h with rhodesain. The reaction mixtures were subsequently analyzed by LC–MS.
In fact, we found ester hydrolysis for the benzyl and methyl esters, but not for the tert-butyl ester. […] The unconverted ester 1 was eluted at tR = 3.19 min. Upon incubation with rhodesain, a peak at tR = 1.03 min was observed matching the retention time of the reference acid 3. […]
triplicates at different time points (0, 30, 60, 120 min) and reactions were initiated by the addition of […]
Hydrolysis assay – LC/MS:
Hydrolysis assays were performed as described previously.[12] To a solution of rhodesain […]
2 mM DTT) 1 μL of either cpd. 1, 2, 6 or 8 in DMSO (20 mM) was added and the mixtures was incubated for 24 h at 25 °C. As negative reaction control, 99 μL assay buffer was treated with pure cpd. 1, 2, 6 or 8 in DMSO (20 mM) without rhodesain. […]
(§1) (20 mM) was added and the absorbance was monitored for 2 h at 25 °C with a Tecan Spark 10M (λabs: […]

Data set [6] has as its target T4, cathepsin L (Homo sapiens, UniProt P07711). Description: Fluorometric cathepsin L inhibition assay (Cbz-Phe-Arg-AMC). In kind it is biochemical. Further details: purchased Calbiochem, Merck Millipore. The conditions noted are these: for Cath. L t1/2: half-life of final complex, 0.693/k4; for Cath. L ΔEreac: reaction energy of second inhibition step from k3/k4; for Cath. L k3 / Cath. L k4: second inhibition step; for Cath. L k3: forward rate; for Cath. L k4: off-rate; for inhibition at 20 µM: at 20 µM inhibitor, read-out: Cath. L % inh.

The target of data set [7] is T4, cathepsin L. Description: Dilution assay (reversibility), cathepsin L. The following applies: 5×IC50, 15 min incubation, 50-fold dilution.
Description: Then, the mixture was diluted by 50-fold to yield a final inhibitor concentration of 10% of the IC50 concentration.
Fluorometric assays for cathepsin B and cathepsin L (Calbiochem, Merck
Millipore) were performed as described previously.[7,8] Cbz-Phe-Arg-AMC was used as substrate
(final conc.: 100 μM for cathepsin B, 6.5 μM for cathepsin L) in assay buffer (50 mM Tris, pH 6.5,
Recombinantly expressed rhodesain (0.9 mg/mL) or cathepsin L (Calbiochem, Merck Millipore) were
diluted 1:100 in enzyme buffer (rhodesain: 50 mM sodium acetate, pH 5.5, 5 mM EDTA, 200 mM
NaCl and 2 mM DTT; cathepsin L: 50 mM Tris, pH 6.5, 5 mM EDTA, 200 mM NaCl and 2 mM DTT)
and preincubated for 1 h at room temperature. 54 μL of the respective enzyme solution was treated
enzyme-inhibitor reactions were incubated for 15 min at room temperature to ensure complete
inhibition. 1.2 μL of each reaction mixture was diluted with 57.3 μL of the respective assay buffer
(rhodesain: 50 mM sodium acetate, pH 5.5, 5 mM EDTA, 200 mM NaCl, 0.005% Brij; cathepsin L:
Phe-Arg-AMC in DMSO (final conc.: 10 μM for rhodesain, 6.5 μM for cathepsin L) and monitored
with a Tecan Infinite M200 Pro plate reader (λ ex: 380 nm/λ em: 460 nm).
The target in data set [8] is T2, rhodesain. Description: Dialysis assay (reversibility), rhodesain. In kind it is biochemical. The conditions noted are these: 20×IC50, 30 min preincubation, dialysis up to 120 min.
The target in data set [9] is T2, rhodesain. Description: Hydrolysis assay UV-Vis (ester hydrolysis by rhodesain). In kind it is biochemical. How it is done: Since the esters and the free carboxylic acid have different UV-Vis characteristics, we recorded time-dependent absorbance spectra at 400 nm (Figure 9).
Figure 9 Kinetic analysis of the ester hydrolysis by rhodesain. […]
Hydrolysis assay – UV-Vis:
To a solution of rhodesain (10 μg/mL) in 197.5 μL reaction buffer (50 mM sodium acetate, pH 5.5,
as §1

Where [10] appears, read: approximate value, read-out: Ki of initial non-covalent complex, Rhod.
Setting [11] is: final complex, Dixon fit of vS vs [I], read-out: Rhod. Ki^* Method 2.
Setting [12] is: final high-affinity complex, Ki/(1+k3/k4), read-out: Rhod. Ki^* Method 1.
[13] abbreviates: initial complex, Dixon fit of vi vs [I], read-out: Rhod. Ki Method 2.
Setting [14] is: initial non-covalent complex, from kobs vs [I], read-out: Rhod. Ki Method 1.
Where [15] appears, read: reversible, time-dependent inhibition, final high-affinity complex, mean of method 1 and method 2, read-out: Rhod. Ki^*.
The mark [16] stands for this setting: approximate value, read-out: Ki of initial non-covalent complex, CathL.
Setting [17] is: final complex, Dixon fit of vS vs [I], read-out: Cath. L Ki^* Method 2.
The mark [18] stands for this setting: final high-affinity complex, Ki/(1+k3/k4), read-out: Cath. L Ki^* Method 1.
Setting [19] is: initial complex, Dixon fit of vi vs [I], read-out: Cath. L Ki Method 2.
Where [20] appears, read: initial non-covalent complex, from kobs vs [I], read-out: Cath. L Ki Method 1.
Where [21] appears, read: reversible, time-dependent inhibition, final high-affinity complex, mean of method 1 and method 2, read-out: Cath. L Ki^*.

Molecules are shown by their SMILES. Values joined by “and” are separate entries in the source; they are usually repeats but may differ in a detail not shown here. Equal entries are not always repeated. “Also recorded” adds a separate entry of the source. Where two headings read alike, the source gives them in different places.

T4 sequence (P07711 114-333): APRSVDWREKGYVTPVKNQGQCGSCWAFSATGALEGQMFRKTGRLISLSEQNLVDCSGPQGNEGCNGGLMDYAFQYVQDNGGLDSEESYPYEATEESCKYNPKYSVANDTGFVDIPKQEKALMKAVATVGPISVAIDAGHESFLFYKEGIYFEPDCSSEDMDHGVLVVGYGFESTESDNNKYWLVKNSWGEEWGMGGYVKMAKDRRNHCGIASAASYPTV
T2 sequence (Q95PM0 entry or part of it): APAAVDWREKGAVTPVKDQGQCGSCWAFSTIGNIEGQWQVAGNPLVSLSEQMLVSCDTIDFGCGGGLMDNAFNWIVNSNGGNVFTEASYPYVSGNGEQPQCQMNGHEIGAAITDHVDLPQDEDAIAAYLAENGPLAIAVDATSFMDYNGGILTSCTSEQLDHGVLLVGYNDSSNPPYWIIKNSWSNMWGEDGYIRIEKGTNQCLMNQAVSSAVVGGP
T3 sequence (P29990 1346-1475): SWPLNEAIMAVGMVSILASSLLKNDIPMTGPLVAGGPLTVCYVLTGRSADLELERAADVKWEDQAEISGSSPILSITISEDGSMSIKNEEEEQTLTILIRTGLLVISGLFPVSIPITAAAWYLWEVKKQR
T3 sequence (P29990 1476-1653): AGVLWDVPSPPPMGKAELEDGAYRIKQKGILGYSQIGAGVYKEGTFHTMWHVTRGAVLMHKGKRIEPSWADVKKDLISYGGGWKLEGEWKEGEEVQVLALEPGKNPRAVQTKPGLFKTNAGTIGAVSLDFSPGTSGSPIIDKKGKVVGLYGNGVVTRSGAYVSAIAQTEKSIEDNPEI

`CC(C)CC(NC(=O)C(Cc1ccccc1)NC1=C(Cl)C(=O)c2ccccc2C1=O)C(=O)OCc1ccccc1` [Compound 1, Benzyl-N-(3-chloro-1,4-dioxo-1,4-dihydronaphthalen-2-yl)-L-phenylalanyl-L-leucinate]: the inhibition at 20 µM in [1] is 53%; in data set [3], 41%. Also, the Ki in data set [2] (read-out: Rhod. Ki) amounted to 2900 nM; in data set [6] (from plots of IC50 vs substrate concentration (Cheng–Prusoff), read-out: Cath. L Ki), 1140 nM. Besides, the “reactivation of enzyme activity after dilution, rhodesain” value (“reactivation … rhodesain” for short) in data set [4] is 40–50%. Further, the “ester hydrolysis by rhodesain (LC–MS)” value in data set [5] is reported as “rhodesain-catalyzed ester hydrolysis”. Further, in [7], the “reactivation of enzyme activity after dilution, cathepsin L” value (shortened to “reactivation … cathepsin L”) is “full reactivation; also recorded: nearly fully recovered”.

As to `CC(C)C[C@H](NC(=O)[C@H](Cc1ccccc1)NC1=C(Cl)C(=O)c2ccccc2C1=O)C(=O)O` [Compound 3], the inhibition at 20 µM in data set [1] was 25%; in data set [3], 43%. Moreover, the “fold improvement of rhodesain inhibition, acid compared to benzyl ester” value in [2] is recorded as “ca. 120 fold”. Also, the Ki in [2] (setting [10]) was around 60 nM; in [2] (setting [11]), 36 nM; in data set [2] (setting [12]), 11 nM; in data set [2] (setting [13]), 63 nM; in [2] (setting [14]), 57 nM; in data set [2] (setting [15]), 24 nM. Besides, the Ki in data set [6] (setting [16]) was around 400 nM; in data set [6] (setting [17]), 61 nM; in [6] (setting [18]), 53 nM; in [6] (setting [19]) it was 345 nM; in [6] (setting [20]), 443 nM; in [6] (setting [21]) it was 57 nM. Also, the “Rhod. t1/2” value in data set [2] was 19.25 min. Also, the “Rhod. ΔEreac” value in data set [2] was -0.85 kcal/mol. Also, the “Rhod. k3” value in [2] came out at 0.0025 s⁻¹. Further, the “Rhod. k4” value in data set [2] stood at 0.0006 s⁻¹. In addition, the “reactivation … rhodesain” value in data set [4] was “full reactivation”. The “recovery of rhodesain activity by dialysis” value (“recovery” below) in data set [8] is “the enzymatic activity was restored”. The “fold improvement of cathepsin L inhibition, acid compared to benzyl ester” value in data set [6] (3 compared to ester 1) is given as 20 fold. For the same compound, the “Cath. L t1/2” value in [6] is 16.5 min. In addition, the “Cath. L ΔEreac” value in data set [6] was -1.2 kcal/mol. The “Cath. L k3” value in [6] was 0.0052 s⁻¹. In addition, the “Cath. L k4” value in data set [6] is 0.0007 s⁻¹. Moreover, in data set [7], the “reactivation … cathepsin L” value is given as “full reactivation”.

Consider `CC(C)C[C@H](NC(=O)[C@H](Cc1ccccc1)NC1=C(C#N)C(=O)c2ccccc2C1=O)C(=O)O` [Compound 4], for which the inhibition at 20 µM was found to be 45% in [1] and 38% in data set [3]. The “fold improvement of rhodesain inhibition, acid compared to benzyl ester” value in [2] was “ca. 1200 fold”. For the same compound, the Ki in [2] (setting [10]) is around 0.4 nM; in data set [2] (setting [11]) it was 0.2 nM; in [2] (setting [12]) it was 0.1 nM; in data set [2] (setting [13]), 0.32 nM; in [2] (setting [14]) it was 0.47 nM; in [2] (setting [15]), ~0.15 nM and 0.15 nM. In addition, the Ki is around 100 nM in [6] (setting [16]); 15 nM in [6] (setting [17]); 19 nM in data set [6] (setting [18]); 91 nM in data set [6] (setting [19]); 129 nM in data set [6] (setting [20]); 17 nM in [6] (setting [21]). Further, the “Rhod. t1/2” value in data set [2] worked out at 19.25 min. Moreover, the “Rhod. ΔEreac” value in data set [2] is -0.89 kcal/mol. For the same compound, the “Rhod. k3” value in [2] came to 0.0027 s⁻¹. The “Rhod. k4” value in data set [2] was found to be 0.0006 s⁻¹. In addition, in data set [4], the “reactivation … rhodesain” value is “full reactivation”. For the same compound, the “recovery” value in data set [8] is recorded as “the enzymatic activity was restored; also recorded: only slow reactivation”. In addition, in [6], the “Cath. L t1/2” value turned out to be 12.8 min. Further, the “Cath. L ΔEreac” value in [6] was -1.1 kcal/mol. For the same compound, the “Cath. L k3” value in [6] came out at 0.0051 s⁻¹. Also, in data set [6], the “Cath. L k4” value turned out to be 0.0009 s⁻¹. Besides, the “reactivation … cathepsin L” value in data set [7] was “full reactivation”.

Consider `COC(=O)[C@H](CC(C)C)NC(=O)[C@H](Cc1ccccc1)NC1=C(Cl)C(=O)c2ccccc2C1=O` [Compound 5], for which the inhibition at 20 µM in data set [2] turned out to be 48%; in data set [6], 45%.

As for `COC(=O)[C@H](CC(C)C)NC(=O)[C@H](Cc1ccccc1)NC1=C(C#N)C(=O)c2ccccc2C1=O` [Compound 6], the Ki in [2] (read-out: Rhod. Ki) was 1240 nM. Also, in data set [9] (Trypanosoma brucei rhodesiense, rhodesain enzyme solution, pH 5.5, absorbance at 400 nm vs time, read-out: t1/2 of ester hydrolysis by rhodesain), the half-life at 250 µM worked out at 10.2 min. In addition, the “turnover curve of absorbance at 400 nm vs. time with rhodesain” value in data set [9] (monitored for 2 h at 25 °C) was “hyperbolic turnover curves”. The inhibition at 20 µM in [6] was 40%.

For `CC(C)C[C@H](NC(=O)[C@H](Cc1ccccc1)NC1=C(Cl)C(=O)c2ccccc2C1=O)C(=O)OC(C)(C)C` [Compound 7], the values for the inhibition at 20 µM in [2] and in [6] were 51% and 38%, respectively.

Consider `CC(C)C[C@H](NC(=O)[C@H](Cc1ccccc1)NC1=C(C#N)C(=O)c2ccccc2C1=O)C(=O)OC(C)(C)C` [Compound 8], for which the inhibition at 20 µM in data set [2] is 38%; in data set [6], 21%.

For `CN1CCN(C(=O)N[C@@H](Cc2ccccc2)C(=O)N[C@H](/C=C/S(=O)(=O)c2ccccc2)CCc2ccccc2)CC1` [K11777, reference compound], in [8], the “recovery” value is “the enzyme activity could not be recovered”. Moreover, the “reactivation … cathepsin L” value in data set [7] is “no recovery was observed”.
